Assay [1] has as its system Rattus norvegicus. The assay is described as follows: In vivo antidiuretic potency of compound was determined in rat.
For assay [2], the species on record is Rattus norvegicus. Nature of the assay: Pressor potency of compound was determined in rat. In kind it is functional.
For a further assay, the species on record is Gallus gallus. Nature of the assay: Avian vasodepressor potency of compound was determined.
Assay [3] is filed under the species Rattus norvegicus. Nature of the assay: In vitro uterotonic potency of compound was determined in rat. In kind it is functional.

Each structure is given as a SMILES string.

With `NCCCC[C@H](NC(=O)[C@@H]1CCCN1C(=O)[C@@H]1CSSC[C@H](N)C(=O)N[C@@H](Cc2ccc(O)cc2)C(=O)N[C@@H](Cc2ccccc2)C(=O)N[C@@H](CCC(N)=O)C(=O)N[C@@H](CC(N)=O)C(=O)N1)C(=O)NCC(N)=O`, the Activity with Rattus norvegicus [1] worked out at 203 mg.
On to `CN(C)C(=O)C[C@@H]1NC(=O)[C@H](CCC(N)=O)NC(=O)[C@H](Cc2ccccc2)NC(=O)[C@H](Cc2ccc(O)cc2)NC(=O)[C@@H](N)CSSC[C@@H](C(=O)N2CCC[C@H]2C(=O)N[C@@H](CCCCN)C(=O)NCC(N)=O)NC1=O`, for which the Activity with Rattus norvegicus [1] is 5.5 mg; in the assay listed under Rattus norvegicus [2], 2.55 mg; in the assay listed under Gallus gallus, 0.39 mg; in the assay listed under Rattus norvegicus [3], below 0.05 mg.
